Measured values: patent US5641800A, “1H-indole-1-functional sPLA2 inhibitors” (Eli Lilly and Company, priority 1995, dated 1997)

How the values were obtained:
human secreted PLA2 = biological target: T1, human secreted PLA2 (Homo sapiens, UniProt P14555); assay: Chromogenic assay, inhibition of recombinant human secreted phospholipase A2; format: biochemical; conditions: recombinant human sPLA2, diheptanoyl thio-PC substrate, pH 7.5, 40° C., 30 minutes, 405 nm; ± mean deviation (3-4 tests)
T1 sequence (P14555 21-144): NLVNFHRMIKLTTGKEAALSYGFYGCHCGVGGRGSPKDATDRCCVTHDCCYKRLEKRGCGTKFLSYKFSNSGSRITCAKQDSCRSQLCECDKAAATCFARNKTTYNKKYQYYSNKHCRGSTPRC
Description: The following chromogenic assay procedure was used to identify and evaluate inhibitors of recombinant human secreted phospholipase A2. The assay described herein has been adapted for high volume screening using 96 well microtiter plates. A general description of this assay method is found in the article, "Analysis of Human Synovial Fluid Phospholipase A2 on Short Chain Phosphatidylcholine-Mixed Micelles: Development of a Spectrophotometric Assay Suitable for a Microtiterplate Reader", by Laure J. Reynolds, Lori L. Hughes, and Edward A Dennis, Analytical Biochemistry,204, pp. 190-197, 1992 (the disclosure of which is incorporated herein by reference):
Bovine Serum Albumin (fatty acid free) (1 g/L) (Sigma A-7030, product of Sigma Chemical Co. St. Louis Mo., USA)
racemic 1,2-bis(heptanoylthio)-1,2-dideoxy-sn-glycero-3-phosphorylcholine
A measured volume of racemic dipheptanoyl thio PC supplied in chloroform at a concentration of 100 mg/ml is taken to dryness and redissolved in 10 millimolar TRITON X 100™ nonionic detergent aqueous solution. Reaction Buff added to the solution, then DTNB to give the Reaction Mixture.
The reaction mixture thus obtained contains […] diheptanoly thio-PC substrate, 0.29 mm Triton X-100™ detergent, and 0.12 mm DTMB in a buffered aqueous solution at pH 7.5.
1. Add 0.2 ml reaction mixture to all wells;
2. Add 10 ul test compound (or solvent blank) to appropriate wells, mix 20 seconds;
3. Add 50 nanograms of sPLA2 (10 microliters) to appropriate wells;
4. Incubate plate at 40° C. for 30 minutes;
5. Read absorbance of wells at 405 nanometers with an automatic plate reader.
All compounds were tested in triplicate. Typically, compounds were tested am a final concentration of 5 ug/ml. […] Lack of color development at 405 nanometers evidenced inhibition. Compounds initially found to be active were reassayed to confirm their activity and, if sufficiently active, IC50 values were determined. […] In all cases, % inhibition measured at 405 nanometers generated by enzyme reactions containing inhibitors relative to the uninhibited control reactions was determined. Each sample was titrated in triplicate and result values were averaged for plotting and calculation of IC50 values. IC50 were determined by plotting log concentration versus inhibition values in the range from 10-90% inhibition.

[1] = biological target: T2, Human Secreted Phospholipase A2 (Homo sapiens, UniProt P14555); assay: Human secreted phospholipase A2 inhibition tests on guinea pig lung tissue (pleural strip contraction); format: tissue-based; conditions: guinea pig lung pleural strips, sPLA2-induced contraction, 37° C., compound added 30 min. prior; Schild slope 1, apparent KB = dissociation constant of the inhibitor; read-out: Tissue test secreted PLA2, Apparent KB
T2 sequence (P14555 21-144): T1 sequence (P14555 21-144)
Description: Male Hartley strain guinea pigs (500-700 g) were killed by cervical dislocation and their heart and lungs removed intact and placed in aerated (95% 02 :5% CO2) Krebs buffer. Dorsal pleural strips (4×1×25 mm) were dissected from intact parenchymal segments (8×4×25 mm) cut parallel to the outer edge of the lower lung lobes. Two adjacent pleural strips, obtained from a single lobe and representing a single tissue sample, were tied at either end and independently attached to a metal support rod. One rod was attached to a Grass force-displacement transducer (Model FTO3C, product of Grass Medical Instruments Co., Quincy, Mass., USA). […] All tissues were placed in 10 ml jacketed tissue baths maintained at 37° C. The tissue baths were continuously aerated and contained a modified Krebs solution of the following composition (millimolar) NaCl, 118.2; KCl, 4.6; CaCl2.2H2 O, 2.5; MgSO4.7H2 O, 1.2; NaHCO3, 24.8; KH2 PO4, 1.0; and dextrose, 10.0. Pleural strips from the opposite lobes of the lung were used for paired experiments.
Initially tissues were challenged 3 times with KCl (40 mM) to test tissue viability and to obtain a consistent response. After recording the maximal response to KCl, the Elssues were washed and allowed to return to baseline before the next challenge. Cumulative concentration-response curves were obtained from pleural strips by increasing the agonist concentration (sPLA2) in the tissue bath by half-log10 increments while the previous concentration remained in contact with the tissues (Ref.1, supra.) Agonist concentration was increased after reaching the plateau of the contraction elicited by the preceding concentration. One concentration-response curve was obtained from each tissue. To minimize variability between tissues obtained from different animals, contractile responses were expressed as a percentage of the maximal response obtained with the final KCl challenge. […]
Data from different experiments were pooled and presented as a percentage of the maximal KCl responses (mean±S.E.). To estimate the drug induced rightward shifts in the concentration response curves, the curves were analyzed simultaneously using statistical nonlinear modeling methods similar to those described by Waud (1976), Equation 26, p. […] The Schild slope was determined to be 1, using statistical nonlinear modeling methods similar to those described by Waud 1976), Equation 27, p. […]
To estimate the drug-induced suppression of the maximal responses, sPLA2 responses (10 ug/ml) were determined in the absence and presence of drug, and percent suppression was calculated for each pair of tissues. […]

## Cc1c(Cc2ccccc2)c2cccc(OCC(=O)O)c2n1CC(=O)NN [Example 4, [[1-(2-hydrazino-2-oxoethyl)-2-methyl-3-(phenylmethyl)-1H-indol-7-yl]oxy]acetic acid]
Human secreted PLA2
  IC50: 200 ± 90 nM
[1]
  Kb: 1670 ± 280 nM

## CCc1c(Cc2ccccc2)c2ccc(OCCCP(=O)(O)O)cc2n1CC(N)=O [Example 3, [3-[[1-(2-amino-2-oxoethyl)-2-ethyl-3-(phenylmethyl)-1H-indol-6-yl]oxy]propyl]phosphonic acid]
Human secreted PLA2
  IC50: 35 ± 8 nM
[1]
  Kb: 415 ± 51 nM

## Cc1c(Cc2ccccc2)c2cccc(OCC(=O)O)c2n1CC(N)=O [Example 1, [[1-(2-Amino-2-oxoethyl)-2-methyl-3-(phenylmethyl)-1H-indol-7-yl]oxy]acetic acid]
Human secreted PLA2
  IC50: 13 ± 2 nM
[1]
  Kb: 390 ± 120 nM

## CCc1c(Cc2ccccc2)c2ccc(OCCCC(=O)O)cc2n1CC(N)=O [Example 2, 4-[[1-(2-amino-2-oxoethyl)-2-ethyl-3-(phenylmethyl)-1H-indol-6-yl]oxy]butyric acid]
Human secreted PLA2
  IC50: 33 ± 3 nM
[1]
  Kb: 1470 ± 340 nM
